Holding throughout (assay type): cell-based
Test [1] has as its system Streptococcus faecalis ATCC 29212. As to the kind of experiment: Agar dilution MIC, Streptococcus faecalis ATCC 29212. Particulars: Enterococcus faecalis, ATCC29212, 18 hours at 35° C., read-out: Minimal Inhibitory Concentration (MIC). On the procedure: (§1) The compounds of the invention are tested for their antibacterial activity. The test is carried out as follows:
(§2) The organisms used in the test comprise the following:
(§3) Staphylococcus aureus (penicillin-sensitive and resistant), Pseudomonas aeruginosa, Escherichia coli, […] pneumoniae, Bordetella bronchiseptica, Proteus vulgaris, P. mirabilis, Acinetobacter calcoaceticus.
(§4) Test organisms may be added or deleted in order to reflect current clinical patterns of antibiotic susceptibility or shifts in pathogenic potential.
(§5) Organisms are normally grown for 18 hours in Brain Heart Infusion at 35° C. Cultures are adjusted with saline to MacFarland No. 1.5 standard prior to use.
(§6) Stock concentrations (e.g. 2,500 μg or units per ml) are prepared in a suitable vehicle. Two-fold dilutions are made. One ml quantities of each dilution are incorporated in 9 ml of the appropriate agar (e.g. Seed) in sterile Petri plates. The hardened surface is inoculated with test organisms by use of a Steers replicating device. The plates are incubated (e.g. 18 hours at 35° C.) and activity is determined.
(In general: In agar dilution, organisms are placed on agar that contains the substance at set levels.)

Test [2] concerns Enterobacter cloacae ATCC 13047. Nature of the test: Agar dilution MIC, Enterobacter cloacae ATCC 13047. Particulars: ATCC13047, 18 hours at 35° C., read-out: Minimal Inhibitory Concentration (MIC). On the procedure:
as §1, §2, §3, §4, §5, §6

In test [3] the test system is Pseudomonas aeruginosa ATCC 27853. Nature of the test: Agar dilution MIC, Pseudomonas aeruginosa ATCC 27853. Particulars: ATCC27853, 18 hours at 35° C., read-out: Minimal Inhibitory Concentration (MIC). On the procedure:
as §1, §2, §3, §4, §5, §6

Test [4] deals with Proteus vulgaris A 84354 1. As to the kind of experiment: Agar dilution MIC, Proteus vulgaris A 84354 1. The settings on record: A843541, 18 hours at 35° C., read-out: Minimal Inhibitory Concentration (MIC). On the procedure: as §1, §2, §3, §4, §5, §6
Test [5] concerns Escherichia coli ATCC 25922. As to the kind of experiment: Agar dilution MIC, Escherichia coli ATCC 25922. The settings on record: ATCC25922, 18 hours at 35° C., read-out: Minimal Inhibitory Concentration (MIC). On the procedure:
as §1, §2, §3, §4, §5, §6

The subject of test [6] is Klebsiella pneunomiae KL-1. As to the kind of experiment: Agar dilution MIC, Klebsiella pneunomiae KL-1. The settings on record: KL1, 18 hours at 35° C., read-out: Minimal Inhibitory Concentration (MIC). On the procedure:
as §1, §2, §3, §4, §5, §6

In test [7] the test system is Staphylococcus aureus ATCC 29213. Nature of the test: Agar dilution MIC, Staphylococcus aureus ATCC 29213. The settings on record: ATCC29213, 18 hours at 35° C., read-out: Minimal Inhibitory Concentration (MIC). On the procedure: as §1, §2, §3, §4, §5, §6
For test [8], the system named is Serratia marcescens ATCC 13880. Nature of the test: Agar dilution MIC, Serratia marcescens ATCC 13880. Particulars: ATCC13880, 18 hours at 35° C., read-out: Minimal Inhibitory Concentration (MIC). On the procedure: as §1, §2, §3, §4, §5, §6

Structures are written as SMILES. In brackets after ≈: the same amount, converted by molar mass.

`CO/N=C(\C(=O)N[C@@H]1C(=O)N2C(C(=O)OC(C)(C)C)=C(CONC(=O)OC(C)(C)C)CS[C@H]12)c1csc(N)n1` [Example 1B, (6R,7R)-7-[[(Z)-(2-amino-4-thiazolyl)(methoxyimino)acetyl]amino]-3-[[[[(1,1-dimethylethoxy)carbonyl]amino]oxy]methyl]-8-oxo-5-thia-1-azabicyclo[4.2.0]oct-2-ene-2-carboxylic acid 1,1-dimethylethyl ester]: the MIC in test [1] came out at 128 µg/mL (≈ 219 µM); in test [2], 32 µg/mL (≈ 54.7 µM); in test [3], 128 µg/mL (≈ 219 µM); in test [4] it was 1 µg/mL (≈ 1.71 µM); in test [5] it was 4 µg/mL (≈ 6.84 µM); in test [6] it was 1 µg/mL (≈ 1.71 µM). Also, the values for the MIC in test [7] and in test [8] were 64 µg/mL (≈ 109 µM) and 16 µg/mL (≈ 27.4 µM), respectively.

The values are drawn from US4692517A, “C-3' acylaminooxy-7-[(2-aminothiazol-4-yl)-α-(substituted-oximino)acety l]cephalosporin derivatives” (American Home Products Corporation, priority 1986, dated 1987).
